Patent publication US20080145313A1, “Compositions and Methods for the Treatment and Prevention of Neoplastic Disorders” (Genesis Research & Development Corporation Limited, priority 2006, published 2008)

What was measured:
A549 cells = assay: Growth inhibition of siRNA-transfected A549 cells, SYBR Green I DNA content; type: cell-based, human; conditions: for Growth Inhibition in A549 cells / Growth Inhibition in A549 cells by 10 nM siRNA: 10 nM siRNA, DNA content 96 hours after transfection; for Growth Inhibition in A549 cells by 10 nM siRNA: transporter gene targets
How it was run: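 A549 cells reverse-transfected with 10 nM Stealth siRNAs via Lipofectamine RNAiMAX, seeded at 5×10^3 cells/cm^2 in RPMI 1640/10% FCS; non-specific siRNA control. DNA content read 96 h post-transfection by SYBR Green I fluorescence (ex 485/em 535 nm) after freeze-thaw and Triton X-100 lysis; mean of three wells.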

A549 xenograft tumor = assay: Xenograft tumor growth of A549 cells transfected with siRNA pre-implantation in CD-1 nude mice; type: in vivo, mouse; conditions: for tumor growth inhibition compared to the control groups: cells transfected pre-implantation, monitored 33 or 26 days; for tumor growth rate compared to control groups: A549 cells transfected with siRNA before s.c. inoculation
Protocol: To determine the effect of RRM1 knockdown on tumor growth, A549 cells (human lung cancer cell line; ATCC No. CCL-185) were reverse-transfected prior to implantation in CD-1 nude mice. In 175 cm^2 culture flasks, 10×10^6 A549 cells (in RPMI supplemented with 10% fetal calf serum) were added to pre-made lipoplexes. To make lipoplexes, Lipofectamine RNAiMAX in serum-free RPMI was added to an equal volume of serum-free RPMI containing siRNA (RRM1-2; SEQ ID NO: 4831 (DNA), and SEQ ID NO: 5137 (RNA)) and a control siRNA (SEQ ID NO: 4804 (DNA), and SEQ ID NO: 5301 (RNA)). After addition of cells, the final concentration of siRNA in the flask was 10 nM. Untransfected cells served as a further control. Flasks were incubated at 37° C. for 24 h to allow transfection to proceed.
The cells were harvested by trypsinization 24 h after the transfection, washed twice in PBS and viable cells were counted. Equal numbers of cells (1×10^7) were inoculated into CD-1 nude mice (n=7-9). Briefly, 5 to 7 weeks old nude mice were subcutaneously (s.c.) injected in the right flank with A549 cells in 100 μl PBS. Tumor growth was monitored 3 times per week by measuring tumor sizes using a digital caliper. Tumor volume was expressed in […] using the formula: V=a^2×b×0.52, where a and b represent the minimum and maximum tumor diameter, respectively. Mean tumor volumes calculated from each measurement were then plotted in a standard graph to compare the tumor growth of transfected cells to that of control.
To determine the effect of siRNA-mediated knockdown of HK-II, CAD, IMPDH2, RRM2, SLC16A1 and SLC29A1 on tumor growth, A549 cells (human lung cancer cell line; ATCC No. CCL-185) were reverse-transfected prior to implantation in CD-1 nude mice as described above with siRNAs given in SEQ ID NO: 5307 (DNA), and SEQ ID NO: 5304 (RNA) for RRM2, SEQ ID NO: 4932 (DNA), and SEQ ID NO: 5227 (RNA) for ENT1, SEQ ID NO: 4813 (DNA), and SEQ ID NO: 5119 (RNA) for HK-II, SEQ ID NO: 4827 (DNA), and SEQ ID NO: 5133 (RNA) for CAD, SEQ ID NO: 4879 (DNA), and SEQ ID NO: 5182 (RNA) for IMPDH2 and SEQ ID NO: 4924 (DNA), and SEQ ID NO: 5219 (RNA) for SLC16A1, respectively. The siRNA given in SEQ ID NO: 4804 (DNA), and SEQ ID NO: 5301 (RNA) was used as control.
In two separate experiments, CD-1 mice were divided into five groups that received untransfected A549 cells, cells transfected with control siRNA or three different siRNAs (as listed above), respectively. Cells were transfected in vitro using the method as described in Example 8, and 24 h after transfection, s.c. inoculated into mice. Tumor growth was measured 3 times per week. In the first experiment, mice received cells transfected with siRNA targeting RRM2, HK-II or SLC29A1 and were monitored for 33 days. In the second experiment, mice received cells transfected with siRNA targeting CAD, IMPDH2 or SLC16A1, and were monitored for 26 days. […] Similarly, preliminary data indicated tumor growth rate was reduced for the groups receiving cells transfected with siRNA targeting CAD and SLC16A1. Twenty-six days after cell inoculation, the tumor volume for mice with cells transfected with siRNA targeting CAD or SLC16A1 was 97.2±7.3 mm^3 or 110.1±28.1 mm^3, respectively.

[1] = tested on: target transcript mRNA in A549 cells; assay: Level of mRNA of target transcript in A549 cells by quantitative RT-PCR (Tables 12 and 13); type: cell-based, human; conditions: 24 h post-transfection; for mRNA knockdown of transporter gene target transcript, 0.1 nM: 0.1 nM siRNA; for mRNA knockdown of transporter gene target transcript, 1 nM: 1 nM siRNA
How it was run: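 A549 cells were transfected with siRNA at 0.1, 1.0 and 10 nM. RNA was extracted 24 h later, reverse-transcribed with random primers, and target mRNA quantified by SYBR Green qRT-PCR. Values were normalised to housekeeping genes HPRT and Lamin.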

Substance	Growth Inhibition in A549 cells (A549 cells)	Growth Inhibition in A549 cells by 10 nM siRNA (A549 cells)	mRNA knockdown of transporter gene target transcript, 0.1 nM [1]	mRNA knockdown of transporter gene target transcript, 1 nM [1]	further results
SEQ ID NO: 4813: siRNA targeting HK-II (chain 1 AATGAGACCAATCTCACAGTTGTGG; chain 2 AAUGAGACCAAUCUCACAGUUGUGG; chemistry not given here; one strand in two spellings)	++ (inhibits by at least 75%)	–	–	–	tumor growth inhibition compared to the control groups (A549 xenograft tumor): No tumor growth inhibition
SEQ ID NO: 4827: siRNA targeting CAD (chain 1 TTCAAGAGAATTTGCTGCCTCGCTC; chain 2 UUCAAGAGAAUUUGCUGCCUCGCUC; chemistry not given here; one strand in two spellings)	+ (inhibits by at least 50%)	–	–	–	tumor growth rate compared to control groups (A549 xenograft tumor): reduced; tumor volume (A549 xenograft tumor; twenty-six days after cell inoculation, preliminary data): 97.2±7.3 mm^3
SEQ ID NO: 4831: Stealth siRNA targeting RRM1 (chain 1 TAGAAGTGCATACTAGTGAGTTTGC; chain 2 UAGAAGUGCAUACUAGUGAGUUUGC; Stealth siRNA, chemical pattern not given here; one strand in two spellings)	++ (inhibits by at least 75%)	–	–	–	growth inhibition, A549 (A549 cells; 0.1 nM siRNA, 96 h post-transfection, normalized to control siRNA): 50%; mice with measurable tumors (A549 xenograft tumor; A549 cells transfected with 10 nM siRNA 24 h before s.c. inoculation): two of eight; tumor growth rate compared to control groups (A549 xenograft tumor): reduced dramatically; average tumor size (A549 xenograft tumor; six weeks after the cell inoculation, 10 nM siRNA pre-implantation): 49.1±18.4 mm^3
SEQ ID NO: 4879: siRNA targeting IMPDH2 (chain 1 AATACCGCCTGTAAGCGCCATTGCT; chain 2 AAUACCGCCUGUAAGCGCCAUUGCU; Both strands are one antisense strand in DNA/RNA notation, chemistry not given here, further chemistry not given here; one strand in two spellings)	++ (inhibits by at least 75%)	–	–	–	tumor growth inhibition compared to the control groups (A549 xenograft tumor): No tumor growth inhibition
SEQ ID NO: 4960: siRNA targeting ATP6V1E1 (chain 1 TGGCATTTGCACCAAACAAGGCTCC; chain 2 UGGCAUUUGCACCAAACAAGGCUCC; chemistry not given here; one strand in two spellings)	–	− (no growth inhibition)	− (<50% mRNA knockdown)	+ (50-70% mRNA knockdown)	–
SEQ ID NO: 4920: siRNA targeting SLC9A1 (NHE1) (chain 1 TCAGGTAGTTGTTGATCTTCTGCTC; chain 2 UCAGGUAGUUGUUGAUCUUCUGCUC; chemistry not given here; one strand in two spellings)	–	− (no growth inhibition)	++ (70-90% mRNA knockdown)	++ (70-90% mRNA knockdown)	–
SEQ ID NO: 4895: siRNA targeting SLC2A5 (GLUT5) (chain 1 ATGTATGGCATCCAGGACACTGTGT; chain 2 AUGUAUGGCAUCCAGGACACUGUGU; Antisense strand given in DNA and RNA notation, chemistry not given here; one strand in two spellings)	–	− (no growth inhibition)	++ (70-90% mRNA knockdown)	++ (70-90% mRNA knockdown)	–
SEQ ID NO: 4889: siRNA targeting SLC1A5 (ASCT2) (chain 1 TTGAAGAAGCGGATAAGCAGCTCCC; chain 2 UUGAAGAAGCGGAUAAGCAGCUCCC; Antisense strand given in DNA and RNA notation, chemistry not given here; one strand in two spellings)	–	− (no growth inhibition)	++ (70-90% mRNA knockdown)	++ (70-90% mRNA knockdown)	–
SEQ ID NO: 4922: siRNA targeting SLC16A1 (MCT1) (chain 1 ATAGGTAGTGGATAAAGGTGCTAGC; chain 2 AUAGGUAGUGGAUAAAGGUGCUAGC; chemistry not given here; one strand in two spellings)	–	+ (inhibits by at least 50%)	+ (50-70% mRNA knockdown)	++ (70-90% mRNA knockdown)	mRNA knockdown of transporter gene target transcript, 10 nM ([1]; 10 nM siRNA): +++ (>90% mRNA knockdown)
